Series [1] in a line: Consolidated qualitative solubility results (Tables 6 and 8). The conditions noted are these: for consolidated solubility result: Table 6; for qualitative solvent solubility overlaid with cocrystallization screens' results: Table 8, numbers are molar concentrations pending investigation.
The nature of series [2]: XRPD of pre-exposed and post-exposed DVS samples (solid form stability). Format: physicochemical. The note with it: two DVS sorption/desorption cycles, 5-95% RH, 25° C. How it is done: X-ray powder diffraction analyses are obtained using a BRUKER D8 ADVANCE equipped with a Cu radiation source operated at 40 kV and 40 mA (λ=1.54 Å after Ni filtering) configured in a Bragg-Brentano geometry, equipped with a 90-position AUTO-CHANGER and a silicon strip detector (SSD160-2). A coupled theta-two theta continuous PSD (Position Sensitive Device) fast scan from 4 to 40 degrees are collected over approximately 32 minutes (0.5 sec/0.01° step). A sample is placed onto a polished zero-background silicon wafer by gently distributing onto the flat surface and is analyzed as a flat plate specimen.
(§1) Samples are analyzed using a TA Instruments Q5000SA gravimetric water sorption analyzer. The relative humidity (RH) is adjusted in 10% RH increments between 5-95% (±1% RH) at 25° C. (±0.5%° C.). The mass of a sample is continuously monitored and recorded with respect to RH and time with criteria for mass equilibrium set as a percent mass change <0.0100 for 5 minutes with a time limit of 720 minutes per step. The humidity is controlled by mixing dry and wet nitrogen streams with a total flow rate of 200 mL/min. The instrument control and data analysis are operated under Advantage for Q Series and Universal Analysis software, respectively.

Series [3] in a line: Coformer and CSP-1103 aqueous solubility assessment (qualitative). It counts as physicochemical. The note with it: water, thermodynamic from solid, 0.05 M aqueous concentration, gentle heating at 45° C. for 1 minute. How it is done:
In a 1-dram vial, enough solvent was added to achieve a 0.05 M aqueous concentration along with some gentle heating at 45° C. for 1 minute to determine if the material would completely dissolve. After 24 hours, observations were made to determine if the material had remained in solution.

The nature of series [4]: physchem.
A short description of series [5]: Dynamic Vapor Sorption (DVS) water sorption/desorption. Format: physicochemical. How it is done:
as §1

The nature of series [6]: Coformer solubility assessment in organic solvents (qualitative). Format: physicochemical. The conditions noted are these: gentle heating 45° C. if required; for solubility: organic solvent or mixture, thermodynamic from solid. The method, then:
Coformer solubility assessment was then performed. The following solvents were selected under these solvent classifications, which represent typical manufacturing solvents and have good solvent-solvent miscibility: • 1. Aprotic Polar: acetone, ethyl acetate, acetonitrile; • 2. Hydrogen Bond Donor: ethanol, methanol; and • 3. Electron Pair Donor: MTBE instead of diethyl ether.
Approximately 0.1 mmol of the coformer was weighed out into a 1-dram vial, enough solvent was added to achieve a 0.2 M concentration, and if required, gentle heating was applied at 45° C. for about 1 minute. […] After 65 hours, observations were made to determine if the coformers had remained in solution.

Setting [7] is: MTBE, organic solvent or mixture.
Where [8] appears, read: ethyl acetate, organic solvent or mixture.
[9] abbreviates: acetonitrile, organic solvent or mixture.
Setting [10] is: ethanol, organic solvent or mixture.

Converted amounts (≈) assume the structure as drawn. Some results are limits rather than exact numbers.

Consider 5 compounds from patent publication US20250161290A1, “CO-CRYSTALS” (CereSpir Incorporated, priority 2021, published 2025).

Consider `NC(=O)c1cccnc1` [nicotinamide], for which the consolidated solubility result in series [1] (acetone), in series [1] (acetonitrile), in series [1] (ethanol), in series [1] (ethyl acetate), in series [1] (methanol) and in series [1] (water) was “✓” throughout. For the same compound, the “qualitative solvent solubility overlaid with cocrystallization screens' results” value (shortened to “qualitative solvent solubility overlaid”) in series [1] (acetonitrile (BP 82° C.)), in series [1] (methanol (BP 65° C.)) and in series [1] (water (BP 100° C.)) was “✓” in each case. Also, the “solid form change after DVS exposure (XRPD pre- vs post-exposed)” value in series [2] is “no solid state form changes”. Besides, the solubility was more than 50 mM in series [3]; less than 50 mM in series [4] (setting [7]); 50 mM (≈ 6.11 mg/mL) in series [4] (setting [8]); more than 200 mM in series [6] (acetone); more than 100 mM in series [6] (acetonitrile); more than 200 mM in series [6] (ethanol). The solubility in series [6] (ethyl acetate) was more than 50 mM; in series [6] (methanol) it was more than 200 mM. The “Mass Change, Adsorption” value in series [5] (DVS cycle 1 of 2, RH 5 to 95%) is listed as 1.11%; in series [5] (DVS cycle 2 of 2, RH 5 to 95%) it was 1.18%. Further, the “Mass Change, Desorption” value in series [5] (DVS cycle 1 of 2, RH 95 to 5%) was −1.11%; in series [5] (DVS cycle 2 of 2, RH 95 to 5%), −1.18%.
As for `N[C@@H](Cc1ccccc1)C(=O)O` [phenylalanine], the “qualitative solvent solubility overlaid” value in series [1] (water (BP 100° C.)) was “✓”. Further, the consolidated solubility result in series [1] (water) is given as “✓”. Also, the solubility is more than 50 mM in series [3]; less than 50 mM in series [4] (setting [7]); less than 50 mM in series [4] (acetone, organic solvent or mixture); less than 50 mM in series [4] (setting [9]); less than 50 mM in series [4] (setting [10]); less than 50 mM in series [4] (setting [8]). Moreover, the solubility in series [4] (methanol, organic solvent or mixture) was less than 50 mM.
`O=C1NS(=O)(=O)c2ccccc21` [saccharin]: the “qualitative solvent solubility overlaid” value in series [1] (MTBE (BP 55° C.)), in series [1] (acetone (BP 56° C.)), in series [1] (acetonitrile (BP 82° C.)) and in series [1] (methanol (BP 65° C.)) was “✓” each time. For the same compound, the consolidated solubility result in series [1] (MTBE), in series [1] (acetone), in series [1] (acetonitrile), in series [1] (ethanol), in series [1] (ethyl acetate) and in series [1] (methanol) was “✓” each time. Besides, the solubility in series [3] is less than 50 mM; in series [4] (setting [10]), 100 mM (≈ 18.3 mg/mL); in series [4] (setting [8]), 200 mM (≈ 36.6 mg/mL); in series [4] (water) it was less than 50 mM; in series [6] (acetone) it was more than 200 mM; in series [6] (acetonitrile), more than 200 mM. Further, the solubility in series [6] (ethanol) was more than 100 mM; in series [6] (ethyl acetate) it was more than 200 mM; in series [6] (methanol), more than 200 mM. The “qualitative solubility at 0.05 M” value in series [6] (MTBE) was “Y✓”.
As to `O=C(O)/C=C/c1ccc(O)c(O)c1` [caffeic acid], the “qualitative solvent solubility overlaid” value in series [1] (acetone (BP 56° C.)), in series [1] (ethanol (BP 79° C.)) and in series [1] (methanol (BP 65° C.)) was “✓” each time. The consolidated solubility result in series [1] (acetone), in series [1] (ethanol) and in series [1] (methanol) was “✓” each time. The solubility in series [3], in series [4] (setting [7]), in series [4] (setting [9]), in series [4] (setting [8]), in series [4] (water) and in series [6] (MTBE) was less than 50 mM in each case. Further, the solubility in series [6] (acetone) is more than 100 mM; in series [6] (ethanol), more than 200 mM; in series [6] (methanol) it was more than 200 mM.
For `COc1cc(C=O)ccc1O` [vanillin], the “qualitative solvent solubility overlaid” value in series [1] (MTBE (BP 55° C.)), in series [1] (acetone (BP 56° C.)), in series [1] (acetonitrile (BP 82° C.)), in series [1] (ethanol (BP 79° C.)), in series [1] (methanol (BP 65° C.)) and in series [1] (water (BP 100° C.)) was “✓” in each case. The consolidated solubility result in series [1] (MTBE), in series [1] (acetone), in series [1] (acetonitrile), in series [1] (ethanol), in series [1] (ethyl acetate) and in series [1] (methanol) was “✓” each time. In addition, in series [1] (water), the consolidated solubility result is “✓”. Besides, the solubility in series [3] is more than 50 mM; in series [4] (setting [8]), 200 mM (≈ 30.4 mg/mL); in series [6] (MTBE) it was more than 200 mM; in series [6] (acetone), more than 200 mM; in series [6] (acetonitrile) it was more than 200 mM; in series [6] (ethanol), more than 200 mM. Further, the solubility in series [6] (ethyl acetate) and in series [6] (methanol) was more than 200 mM throughout.

One may read the solubility as how much of the substance goes into solution per volume.
